According to patent US20150210641A1, “NOVEL CYTOCHROME P450 INHIBITORS AND THEIR METHOD OF USE” (CORTENDO AB (PUBL), priority 2014, published 2015):
pIC50: −log10 of the molar value.

Key:
Format in all cases: cell-based
recombinant CYP-21 = biological target: T1, recombinant CYP-21 (Homo sapiens, UniProt P08686); assay: Cyp21 assay: 11-deoxycortisol formation from 17-OH Progesterone in AD293 cells, LC/MS; details: AD293 cells stably over-expressing recombinant CYP-21; eight concentrations 10 μM to 4.5 nM
T1 construct: expressed in transfected cells
T1 sequence (P08686 1-495): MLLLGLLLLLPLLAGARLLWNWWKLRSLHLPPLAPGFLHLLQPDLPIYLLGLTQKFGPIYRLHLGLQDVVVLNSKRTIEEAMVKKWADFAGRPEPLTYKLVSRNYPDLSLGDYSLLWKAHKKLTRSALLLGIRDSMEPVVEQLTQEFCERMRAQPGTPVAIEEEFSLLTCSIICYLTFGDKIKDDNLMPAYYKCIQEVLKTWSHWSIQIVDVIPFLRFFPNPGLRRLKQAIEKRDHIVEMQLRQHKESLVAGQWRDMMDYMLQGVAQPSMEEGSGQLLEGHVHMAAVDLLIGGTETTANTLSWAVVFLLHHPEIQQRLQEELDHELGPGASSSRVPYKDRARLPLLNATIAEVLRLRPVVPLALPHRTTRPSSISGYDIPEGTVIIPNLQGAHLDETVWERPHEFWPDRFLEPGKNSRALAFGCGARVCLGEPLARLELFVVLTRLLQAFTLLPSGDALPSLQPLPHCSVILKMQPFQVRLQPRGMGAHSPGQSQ
Method: Cyp21 assay protocol: AD293 cells that stably over-express recombinant CYP-21 were seeded in 96 well plates coated with poly D-lysine (10,000 cell per well) and incubated at 37° C. for 24 hours in Dulbecco's Modified Eagle Medium (DMEM) with Fetal Bovine Serum (FBS) that is stripped of hormones by charcoal treatment. The media is then removed, the cells are washed once with Phosphate buffer saline solution, and 50 μL Dulbecco's Modified Eagle Medium (DMEM) with Fetal Bovine Serum (FBS) that is stripped of hormones by charcoal treatment is added. Compounds of the disclosure are then added to the wells in eight concentration spanning 10 μM to 4.5 nM, and the plates are incubated for an additional 60 minutes at 37° C. 17-OH Progesterone is then added ([…]) and the plates are incubated for an additional 45 minutes at 37° C. After incubation, 50 uL of the supernatant (medium) is transferred into a fresh plate and 150 uL of an acetonitrile solution containing 200 ng/ml of Telmisartan is added. The sample is mixed and then placed in a centrifuge at 2000 rpm for 5 minutes.

recombinant CYP-17 = biological target: T2, recombinant CYP-17 (Homo sapiens, UniProt P05093); assay: Cyp17 assay: 3H-acetic acid release from [21-3H] 17α-hydroxyl-Pregnenolone in AD293 cells; details: AD293 cells stably over-expressing recombinant CYP-17; eight concentrations 10 μM to 4.5 nM
T2 construct: expressed in transfected cells
T2 sequence (P05093 1-508): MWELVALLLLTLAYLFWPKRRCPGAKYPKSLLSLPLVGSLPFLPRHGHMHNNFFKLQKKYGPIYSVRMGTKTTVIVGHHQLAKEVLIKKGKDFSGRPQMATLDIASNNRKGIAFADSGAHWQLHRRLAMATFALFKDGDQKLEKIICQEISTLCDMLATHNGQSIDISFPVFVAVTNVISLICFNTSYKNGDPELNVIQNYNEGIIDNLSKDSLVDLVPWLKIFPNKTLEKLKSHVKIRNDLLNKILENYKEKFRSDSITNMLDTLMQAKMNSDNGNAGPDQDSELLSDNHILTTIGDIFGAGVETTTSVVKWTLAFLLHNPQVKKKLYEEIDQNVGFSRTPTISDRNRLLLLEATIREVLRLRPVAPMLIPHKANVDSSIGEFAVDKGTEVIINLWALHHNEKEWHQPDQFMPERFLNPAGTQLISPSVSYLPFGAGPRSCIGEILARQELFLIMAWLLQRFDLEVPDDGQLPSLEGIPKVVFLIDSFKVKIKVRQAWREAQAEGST
Method: Cyp17 assay protocol: AD293 cells that stably over-express recombinant CYP-17 were seeded in 96 well plates coated with poly D-lysine (15,000 cell per well) and incubated at 37° C. for 24 hours in Dulbecco's Modified Eagle Medium (DMEM) with Fetal Bovine Serum (FBS) that is stripped of hormones by charcoal treatment. The media is then removed, the cells are washed once with Phosphate buffer saline solution, and 50 μL Dulbecco's Modified Eagle Medium (DMEM) with Fetal Bovine Serum (FBS) that is stripped of hormones by charcoal treatment is added. Compounds of the disclosure are then added to the wells in eight concentration spanning 10 μM to 4.5 nM, and the plates are incubated for an additional 60 minutes at 37° C. [21-^3H] 17α-hydroxyl-Pregnenolone is then added (50 nCi per well, 31.25 nM) and the plates are incubated for an additional 4 hours at 37° C. The media is then collected, 200 μL of chloroform is added, and the mixture is shaken for 1 hour. The aqueous layer is then separated and analyzed for the presence of ^3H-acetic acid using a Perkin Elmer Topcount NXT to determine IC50s of the compounds of the disclosure.

recombinant CYP-11 = biological target: T3, recombinant CYP-11 (Homo sapiens, UniProt P15538); assay: Cyp11 assay: cortisol formation from 11-deoxycortisol in AD293 cells, LC/MS; details: AD293 cells stably over-expressing recombinant CYP-11; eight concentrations 10 μM to 4.5 nM
T3 construct: expressed in transfected cells
T3 sequence (P15538 25-503): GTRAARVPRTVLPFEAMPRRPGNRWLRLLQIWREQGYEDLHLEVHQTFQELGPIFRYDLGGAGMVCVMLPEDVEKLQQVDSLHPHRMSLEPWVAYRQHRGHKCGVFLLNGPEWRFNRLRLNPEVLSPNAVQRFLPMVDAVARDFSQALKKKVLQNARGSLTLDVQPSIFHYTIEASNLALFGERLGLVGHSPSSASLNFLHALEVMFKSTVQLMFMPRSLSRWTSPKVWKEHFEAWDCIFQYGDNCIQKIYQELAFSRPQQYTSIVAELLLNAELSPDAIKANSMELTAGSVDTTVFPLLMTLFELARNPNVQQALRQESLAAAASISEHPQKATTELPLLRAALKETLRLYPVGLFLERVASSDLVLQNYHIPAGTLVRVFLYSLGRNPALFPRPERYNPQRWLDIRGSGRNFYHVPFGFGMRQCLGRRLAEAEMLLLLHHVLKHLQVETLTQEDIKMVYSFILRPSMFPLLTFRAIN
Method: Cyp11 assay protocol: AD293 cells that stably over-express recombinant CYP-11 were seeded in 96 well plates coated with poly D-lysine (15,000 cell per well) and incubated at 37° C. for 24 hours in Dulbecco's Modified Eagle Medium (DMEM) with Fetal Bovine Serum (FBS) that is stripped of hormones by charcoal treatment. The media is then removed, the cells are washed once with Phosphate buffer saline solution, and 50 μL Dulbecco's Modified Eagle Medium (DMEM) with Fetal Bovine Serum (FBS) that is stripped of hormones by charcoal treatment is added. Compounds of the disclosure are then added to the wells in eight concentration spanning 10 μM to 4.5 nM, and the plates are incubated for an additional 60 minutes at 37° C. 11-deoxycortisol is then added ([…]) and the plates are incubated for an additional 12 hours at 37° C. After incubation, 50 uL of the supernatant (medium) is transferred into a fresh plate and 150 uL of an acetonitrile solution containing 200 ng/ml of Telmisartan is added. The sample is mixed and then placed in a centrifuge at 2000 rpm for 5 minutes. 100 uL of the supernatant is transferred into a fresh 96 well deep well plate, 100 uL of 1:1 methanol: water was added, the solution was mixed and then analyzed by LC/MS for the presence of cortisol using an Agilent 1200 RRLC/ABSCIEX API4000 LC-MS or Shimadzu Prominance/ABSCIEX API4000 LC-MS to determine IC50s of the compounds of the disclosure.

Row | SMILES | pIC50 (recombinant CYP-21) | pIC50 (recombinant CYP-17) | pIC50 (recombinant CYP-11)
1 | COc1cc(F)ccc1-c1ccc(C(c2ccncc2)N2CCN(c3ccccn3)CC2)cc1 (stereo not drawn) [Entry 23, 1-((4′-fluoro-2′-methoxy-[1,1′-biphenyl]-4-yl)(pyridin-4-yl)methyl)-4-(pyridin-2-yl)piperazine] | ≤ 5.00 | 7.37 | ≤ 5.00
2 | COc1cccc(-c2ccc(C(c3ccncc3)N3CCNCC3)cc2)c1 (stereo not drawn) [Entry 32, 1-((3′-methoxy-[1,1′-biphenyl]-4-yl)(pyridin-4-yl)methyl)piperazine] | ≤ 5.00 | 5.93 | ≤ 5.00
3 | CCN1CCN(C(c2ccncc2)c2ccc(-c3ccc(F)cc3OC)cc2)CC1 (stereo not drawn) [Entry 28, 1-ethyl-4-((4′-fluoro-2′-methoxy-[1,1′-biphenyl]-4-yl)(pyridin-4-yl)methyl)piperazine] | ≤ 5.00 | 6.93 | ≤ 5.00
4 | COc1cc(F)ccc1-c1ccc(C(c2ccncc2)N2CCC(O)CC2)cc1 (stereo not drawn) [Entry 29, 1-((4′-fluoro-2′-methoxy-[1,1′-biphenyl]-4-yl)(pyridin-4-yl)methyl)piperidin-4-ol] | 5.40 | 7.92 | ≤ 5.00
5 | COc1cc(F)ccc1-c1ccc(C(NCCN)c2ccncc2)cc1 (stereo not drawn) [Entry 26, N1-((4′-fluoro-2′-methoxy-[1,1′-biphenyl]-4-yl)(pyridin-4-yl)methyl)ethane-1,2-diamine] | ≤ 5.00 | 6.92 | ≤ 5.00
6 | COc1cc(F)ccc1-c1ccc(C(c2ccncc2)N2CCN(C3CCCC3)CC2)cc1 (stereo not drawn) [Entry 21, 1-cyclopentyl-4-((4′-fluoro-2′-methoxy-[1,1′-biphenyl]-4-yl)(pyridin-4-yl)methyl)piperazine] | ≤ 5.00 | 6.05 | ≤ 5.00
7 | COc1cc(F)ccc1-c1ccc(C(c2ccncc2)N2CCN(C)CC2)cc1 (stereo not drawn) [Entry 20, 1-((4′-fluoro-2′-methoxy-[1,1′-biphenyl]-4-yl)(pyridin-4-yl)methyl)-4-methylpiperazine] | ≤ 5.00 | 6.97 | ≤ 5.00
8 | COc1cc(F)ccc1-c1ccc(C(c2ccncc2)N2CCN(C(C)=O)CC2)cc1 (stereo not drawn) [Entry 27, 1-(4-((4′-fluoro-2′-methoxy-[1,1′-biphenyl]-4-yl)(pyridin-4-yl)methyl)piperazin-l-yl)ethanone] | ≤ 5.00 | 7.66 | ≤ 5.00

The next compounds have a higher pIC50 (recombinant CYP-21) than those just listed; values first:

Row | pIC50 (recombinant CYP-21) | pIC50 (recombinant CYP-17) | pIC50 (recombinant CYP-11) | SMILES
9 | 5.62 | 7.57 | ≤ 5.00 | COc1cccc(-c2ccc(C(c3ccncc3)N3CCCCC3)cc2)c1 (stereo not drawn) [Entry 31, 4-((3′-methoxy-[1,1′-biphenyl]-4-yl)(piperidin-1-yl)methyl)pyridine]
10 | 5.66 | 6.22 | ≤ 5.00 | COc1cc(F)ccc1-c1ccc(C2(c3ccncc3)OCC(C)(C)CO2)cc1 [Entry 6, 4-[2-(4′-Fluoro-2′-methoxy-biphenyl-4-yl)-5,5-dimethyl-[1,3]dioxan-2-yl]-pyridine]
11 | 6.21 | 6.29 | 6.32 | COc1cccc(-c2ccc(C(OC)c3ccncc3)cc2)c1 (stereo not drawn) [Entry 34, 4-(methoxy(3′-methoxy-[1,1′-biphenyl]-4-yl)methyl)pyridine]
12 | 6.28 | ≤ 5.00 | ≤ 5.00 | COc1cc(F)ccc1-c1ccc(C(OC)c2ccncc2)cc1 (stereo not drawn) [Entry 33, 4-((4′-fluoro-2′-methoxy-[1,1′-biphenyl]-4-yl)(methoxy)methyl)pyridine]
13 | 6.39 | 7.47 | ≤ 5.00 | COc1ccc(-c2ccc(C(F)(F)c3ccncc3)cc2)cc1OC [Entry 8]
14 | 6.63 | 5.66 | ≤ 5.00 | COc1cc(F)ccc1-c1ccc(C(F)(F)c2ccncc2)cc1 [Entry 2, 4-[Difluoro-(4′-fluoro-2′-methoxy-biphenyl-4-yl)-methyl]-pyridine]
